Publication PMC10073729, “Synthesis, radiolabeling, and evaluation of 68Ga-labeled aminoquinoxaline derivative as a potent PFKFB3-targeted PET tracer” (Frontiers in Chemistry, 2023)
Read-outs that look alike come from different tables or passages of the source.

Columns and labels:
PFKFB3 = details: 2019, cited from earlier work
[1] = tested on: F2,6BP production in HCT116 cells; test: Cellular inhibition assay: F2,6BP production in glucose-starved, restimulated HCT116 cells; format: cell-based; details: Homo sapiens, HCT-116, 25 mM glucose restimulation 4 h, triplicate
Method: For the cellular inhibition assay, the protocol used in this section was also from the same literature as the PFKFB3 enzymatic activity assay, with minor modifications ([Boutard et al., 2019]). Briefly, glucose-starved HTC116 cells were pretreated with diluted compounds at different concentrations and restimulated with 25 mM glucose for 4 h to trigger glycolytic flux. Cells were then lysed by NaOH ([…]) under 85°C for 10 min and transferred to a HEPES solution (20 mM) neutralized by acetic acid (1 M) to pH 7.5–8.0. The lysates (equal amounts, normalized to protein level) were reacted in a mixture of α-glycerophosphate dehydrogenase (0.17 U), aldolase (0.083 U), pyrophosphate-dependent fructose-6-phosphate kinase from potato (0.17 U) and triosephosphate isomerase (0.83 U) in Tris (pH 8.0), glucose-6-phosphate (17 mM), fructose-6-phosphate (2.5 mM) and magnesium chloride (5.5 mM) in a total volume of 100 µL. The reaction was induced by the addition of NADH (0.14 mM) under 30°C, and the absorbance at 340 nm was measured 30 min post addition. All absorbances for reaction mixtures for test compounds with different concentrations were recorded and used for IC50 calculations in GraphPad Prism 5.0 software.

[2] = biological target: T1, Human Recombinant PFKFB3 Protein (His and GST Tag) (Homo sapiens, UniProt Q16875); test: ADP-Glo-based PFKFB3 enzymatic activity inhibition assay; format: biochemical; details: triplicate
T1 construct: His; GST; purchased SinoBiological
T1 sequence (Q16875 whole entry): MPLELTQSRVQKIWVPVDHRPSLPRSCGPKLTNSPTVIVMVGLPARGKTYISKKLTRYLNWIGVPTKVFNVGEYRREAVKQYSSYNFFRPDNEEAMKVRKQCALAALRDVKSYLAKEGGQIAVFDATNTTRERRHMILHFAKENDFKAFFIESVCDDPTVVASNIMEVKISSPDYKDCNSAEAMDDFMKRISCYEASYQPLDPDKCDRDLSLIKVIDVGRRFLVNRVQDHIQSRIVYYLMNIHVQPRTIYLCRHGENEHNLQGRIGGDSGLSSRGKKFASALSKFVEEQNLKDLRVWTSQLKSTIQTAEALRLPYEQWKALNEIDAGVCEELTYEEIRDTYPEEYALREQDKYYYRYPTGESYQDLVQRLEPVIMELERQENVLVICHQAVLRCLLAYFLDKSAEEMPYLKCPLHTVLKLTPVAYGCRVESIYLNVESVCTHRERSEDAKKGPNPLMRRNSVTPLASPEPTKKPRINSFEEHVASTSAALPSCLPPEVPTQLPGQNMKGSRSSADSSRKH
Description: All regents used in this section were purchased from Sigma, and the Human Recombinant PFKFB3 Protein (His and GST Tag) was purchased from SinoBiological. The ADP-Glo™ Kinase Assay kit was also obtained from Promega.
The PFKFB3 enzymatic activity assay followed an identical procedure used in previously published literature, along with the same regents and materials ([Boutard et al., 2019]).

[3] = representative PFKFB3 inhibitors, Figure 1, ref Boyd et al., 2015, Boutard et al., Wang et al., 2020, read-out: IC50 (PFKBF3)

| SMILES | IC50 (PFKFB3; [3]) | IC50 [1] | IC50 (PFKFB3; ref Boutard et al., read-out: IC50 enzymatic PFKFB3 inhibition (reported)) | IC50 [2] |
| --- | --- | --- | --- | --- |
| CC(C)OC(=O)c1cccc(-c2cc(S(=O)(=O)Nc3ccc(C(=O)O)c(O)c3)sc2Cl)c1 [compound 1] | 150 nM |  |  |  |
| Cc1c(S(=O)(=O)Nc2cccc(-c3nnn[nH]3)c2)oc2ccc(C(C)C)cc12 [compound 2] | 80 nM |  |  |  |
| Cc1noc(C)c1Cn1nc(C#N)c2cc(Oc3ccc(NC(=O)[C@@H]4CCCN4)cc3)ccc21 [compound 3] | 3 nM |  |  |  |
| CN1CCCC(NC(=O)c2cncc(Nc3cc(-c4ccc5ccn(C)c5c4)c4nccnc4c3)c2)C1 (centres unmarked) [compound 4] |  | 2300 ± 800 nM | 2 nM | 6.7 ± 2.3 nM |
| Cn1ccc2ccc(-c3cc(Nc4cncc(C(=O)NC5CCCN(C(=O)CCC(C(=O)O)N6CCN(CC(=O)O)CCN(CC(=O)O)CCN(CC(=O)O)CC6)C5)c4)cc4nccnc34)cc21 (centres unmarked) [compound 5, 2,2′,2′′-(10-(1-carboxy-4-(3-(5-((8-(1-methyl-1H-indol-6-yl)quinoxalin-6-yl)amino)nicotinamido)piperidin-1-yl)-4-oxobutyl)-1,4,7,10-tetraazacyclododecane-1,4,7-triyl) triacetic acid] |  | 5300 ± 1400 nM |  | 12.5 ± 4.5 nM |
